Legend:
OVCAR-5 = experiment: Antitumor activity against human OVCAR5 cells assessed as growth inhibition; assay type: functional
[1] = Antitumor activity against human NCI-ADR-RES cells assessed as growth inhibition; assay type: functional
Casein kinase II = Casein kinase II (Homo sapiens, UniProt P19784+P67870+P68400); experiment: Inhibition of human recombinant CK2 using RRRDDDSDDD-EDANS peptide substrate by capillary electrophoresis analysis; assay type: protein-complex assay
[2] = biological target: T1, Casein kinase II (Homo sapiens) (UniProt P67870+P68400+P19784); experiment: Inhibition of human recombinant CK2 using RRRDDDSDDD-EDANS peptide substrate at 10 µM by capillary electrophoresis analysis
HOP-92 = experiment: Antitumor activity against human HOP92 cells assessed as growth inhibition; assay type: functional
DU-145 = experiment: Antitumor activity against human DU145 cells assessed as growth inhibition; assay type: functional
Homo sapiens = species on record: Homo sapiens; experiment: Antitumor activity against human lymphoma assessed as growth inhibition at 27 uM; assay type: functional
[3] = biological target: T1, Casein kinase II (Homo sapiens); experiment: Inhibition of human recombinant CK2 using RRRDDDSDDD-EDANS peptide substrate at […] by capillary electrophoresis analysis; assay type: protein-complex assay

Sequence of Casein kinase II (P67870 whole entry): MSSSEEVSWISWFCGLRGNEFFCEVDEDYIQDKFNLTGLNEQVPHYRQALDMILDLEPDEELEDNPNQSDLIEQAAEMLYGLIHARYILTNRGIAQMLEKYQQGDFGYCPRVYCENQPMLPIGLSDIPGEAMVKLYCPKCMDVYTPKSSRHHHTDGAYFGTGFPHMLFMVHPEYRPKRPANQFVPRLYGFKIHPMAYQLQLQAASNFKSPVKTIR
Sequence of Casein kinase II (P68400 whole entry): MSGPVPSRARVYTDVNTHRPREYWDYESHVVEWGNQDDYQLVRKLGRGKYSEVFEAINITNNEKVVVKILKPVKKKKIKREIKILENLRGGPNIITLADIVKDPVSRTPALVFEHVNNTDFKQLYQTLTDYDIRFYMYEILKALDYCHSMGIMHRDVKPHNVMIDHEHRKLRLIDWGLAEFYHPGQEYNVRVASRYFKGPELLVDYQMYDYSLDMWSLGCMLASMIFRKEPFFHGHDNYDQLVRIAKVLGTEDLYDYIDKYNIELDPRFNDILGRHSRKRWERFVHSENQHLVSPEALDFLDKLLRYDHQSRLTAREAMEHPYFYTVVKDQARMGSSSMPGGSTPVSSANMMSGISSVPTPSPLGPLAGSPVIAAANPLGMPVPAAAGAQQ
Sequence of Casein kinase II (P19784 whole entry): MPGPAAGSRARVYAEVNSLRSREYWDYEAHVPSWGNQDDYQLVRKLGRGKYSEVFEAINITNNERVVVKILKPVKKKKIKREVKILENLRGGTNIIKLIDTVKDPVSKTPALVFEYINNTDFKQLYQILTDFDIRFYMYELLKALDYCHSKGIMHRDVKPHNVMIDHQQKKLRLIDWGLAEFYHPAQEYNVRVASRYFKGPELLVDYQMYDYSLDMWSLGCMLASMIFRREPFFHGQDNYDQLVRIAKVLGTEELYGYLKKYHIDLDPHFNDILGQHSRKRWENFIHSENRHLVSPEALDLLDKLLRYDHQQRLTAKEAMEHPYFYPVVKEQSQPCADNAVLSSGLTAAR

## CCOC(=O)C1=C(C)N(Cc2ccc(Cl)cc2Cl)C(=N)C12C(=O)C(Cl)=C(Cl)C(O)=C2C#N (centres undefined)
OVCAR-5
  GI50: 2690 nM
[1]
  GI50: 191 nM

## CCOC(=O)c1oc2c(Cl)c(Cl)c(OC(C)=O)c(C#N)c2c1N
Casein kinase II
  IC50: 2400 nM
[2]
  inhibition: 69%

## CC(C)=CC(=O)c1oc2c(Cl)c(Cl)c(O)c(C#N)c2c1N
[2]
  inhibition: > 96%

## CCOC(=O)C1=C(C)N(c2ccc(F)cc2F)C(=N)C12C(=O)C(Cl)=C(Cl)C(O)=C2C#N (centres undefined)
HOP-92
  GI50: 1780 nM

## CCOC(=O)C1=C(C)N(c2ccc(Cl)cc2)C(=N)C12C(=O)C(Cl)=C(Cl)C(O)=C2C#N (centres undefined)
DU-145
  GI50: 339 nM

## CC(C)=CC(=O)c1coc2ccc(O)cc12
[2]
  inhibition: 39%

## CC(=O)Oc1c(Cl)c(Cl)c2oc(C(=O)C=C(C)C)c(N)c2c1C#N
Homo sapiens
  growth inhibition (GI): > 99%
Casein kinase II
  IC50: 200 nM
[2]
  inhibition: 93%

## CCOC(=O)C1=C(C)N(Cc2ccc(Cl)cc2Cl)/C(=N\C(C)=O)C12C(=O)C(Cl)=C(Cl)C(OC(C)=O)=C2C#N (centres undefined)
[3]
  inhibition: 0%

## CCOC(=O)c1oc2ccc(OC(C)=O)c(CNC(C)=O)c2c1NC(C)=O
[2]
  inhibition: 0%

## CCOC(=O)C1=C(c2ccccc2)N(c2ccc(OC)cc2)C(=N)C12C(=O)C(Cl)=C(Cl)C(O)=C2C#N (centres undefined)
HOP-92
  GI50: 550 nM
